The record followed here is patent publication US6951751B2, “DNA and amino acid sequences of a tyrosine-inducible tyrosine ammonia lyase enzyme from the yeast Trichosporon cutaneum” (E. I. du Pont de Nemours and Company, priority 2002, dated 2005).

What all share (type): biochemical
The subject of experiment [1] is Sporidobolus pararoseus (ATCC No. 11386) PAL/TAL enzyme. Kind of experiment: PAL/TAL enzyme kinetics in cell-free extract, S. pararoseus ATCC 11386. The text has this:
(§1) The yeast strains: Rhodotorula rubra (ATCC No. 889), Saccharomycopsis fibuligera (ATCC No. 2080), Rhodosporidium toruloides (ATCC No. 10788), Sporidobolus pararoseus (ATCC No. 11386), Sporidiobolus ruinenii (ATCC No. 20489), Rhodotorula graminis (ATCC No. 20804), Rhodotorula minuta (ATCC No. 32769), Trichosporon cutaneum (ATCC No. 46446), and Trichosporon cutaneum (ATCC No. 58094) were obtained from the American Type Culture Collection (ATCC, Manassas, Va.). These yeast strains were streaked out from glycerol stock onto nutrient agar plates and grown at 30° C. Single colonies were then selected and transferred to 50 mL of Dagley's medium (Sparnins, et al, J. Bact. 138:425-430 (1979)) supplemented with 0.1 g/L of tyrosine, phenylalanine or succinate. Alternatively, a minimal media, consisting of 1.61 g/L of K2HPO4, 5.55 g/L of KH2PO4, 0.1 g/L MgSO4, 0.01 g/L of biotin, with a pH of 6.2 and supplemented with 0.5 g/L of tyrosine, was used. The cells were grown up at 30° C. on a shaker at ˜250 rpm to an OD between 1.0 and 2.0 at 600 nm. The cells were then pelleted by centrifugation and resuspended in 1.0 mL of 50 mM Tris-HCl buffer, pH 8.5.
(§2) The cells were washed and then resuspended in 50 mM Tris-HCl buffer, pH 8.5, containing 1.0 μg/mL of both leupeptin and pepstatin A, 0.5 mM of PMSF (phenylmethylsulfonyl fluoride) and a small amount of DNase. The cells were then passed twice through a French Pressure Cell at 18,000 psi and the debris was removed by centrifugation at 38,720×g for 20 min at 4° C. The supernatant was then used as the crude cell free extract for enzyme assays.
(§3) Protein concentrations were determined using the Bradford method (Anal. Biochem. 72:248-254 (1976)). The Coomassie solution was mixed with varying amounts of the cell free extracts and the OD at 595 nm was measured.
(§4) For PAL activity, cinnamate formation was monitored at 290 nm using a molar extinction coefficient of 9000 cm-1. One unit of activity deaminates 1.0 μmol of phenylalanine to cinnamate in one min. For TAL activity, PHCA formation was monitored at 315 nm (extinction coefficient of 10,000 cm-1). One unit of activity deaminates 1.0 μmol of tyrosine to PHCA in one min.

For experiment [2], the system named is Sporidiobolus ruinenii (ATCC No. 20489) PAL/TAL enzyme. The experiment is described as follows: PAL/TAL enzyme kinetics in cell-free extract, S. ruinenii ATCC 20489.
Text: as §1, §2, §3, §4

Experiment [3] has as its system Rhodotorula minuta (ATCC No. 32769) PAL/TAL enzyme. The experiment is described as follows: PAL/TAL enzyme kinetics in cell-free extract, R. minuta ATCC 32769.
Text: as §1, §2, §3, §4

Experiment [4] has as its system Saccharomycopsis fibuligera (ATCC No. 2080) PAL/TAL enzyme. Kind of experiment: PAL/TAL enzyme kinetics in cell-free extract, S. fibuligera ATCC 2080.
Text: as §1, §2, §3, §4

Experiment [5] has as its system Trichosporon cutaneum (ATCC No. 46446) PAL/TAL enzyme. The experiment is described as follows: PAL/TAL enzyme kinetics in cell-free extract, T. cutaneum ATCC 46446.
Text: as §1, §2, §3, §4

The test system of experiment [6] is Trichosporon cutaneum (ATCC No. 58094) tyrosine ammonia lyase (TAL), wild type, SEQ ID NO:25. The experiment is described as follows: PAL/TAL enzyme kinetics in cell-free extract, T. cutaneum ATCC 58094.
Text: as §1, §2, §3, §4

Experiment [7] relates to Rhodotorula graminis (ATCC No. 20804) PAL/TAL enzyme. Kind of experiment: PAL/TAL enzyme kinetics in cell-free extract, R. graminis ATCC 20804.
Text: as §1, §2, §3, §4

In experiment [8] the target is T1, Rhodotorula rubra (ATCC No. 889) PAL/TAL enzyme (Rhodotorula mucilaginosa, UniProt P10248).
T1 sequence (P10248 1-713): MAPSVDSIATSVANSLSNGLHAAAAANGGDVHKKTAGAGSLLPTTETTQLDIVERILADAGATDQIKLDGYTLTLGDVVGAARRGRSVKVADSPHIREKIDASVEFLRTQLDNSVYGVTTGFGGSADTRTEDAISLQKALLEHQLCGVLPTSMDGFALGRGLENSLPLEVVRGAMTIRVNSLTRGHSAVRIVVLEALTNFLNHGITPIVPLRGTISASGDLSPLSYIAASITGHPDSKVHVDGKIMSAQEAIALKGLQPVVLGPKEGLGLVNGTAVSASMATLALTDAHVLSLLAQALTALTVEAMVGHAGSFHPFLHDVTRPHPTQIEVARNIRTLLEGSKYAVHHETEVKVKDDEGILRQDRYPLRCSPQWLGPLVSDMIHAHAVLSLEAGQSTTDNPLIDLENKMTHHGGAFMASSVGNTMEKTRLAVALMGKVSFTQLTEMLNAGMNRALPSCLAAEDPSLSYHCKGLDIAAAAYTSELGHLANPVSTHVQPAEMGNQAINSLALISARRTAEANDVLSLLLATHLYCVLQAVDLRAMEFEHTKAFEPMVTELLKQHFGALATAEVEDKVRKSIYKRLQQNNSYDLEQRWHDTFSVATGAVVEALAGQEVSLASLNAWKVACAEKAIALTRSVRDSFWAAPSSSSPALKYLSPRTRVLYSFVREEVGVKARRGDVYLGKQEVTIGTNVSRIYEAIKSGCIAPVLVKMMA
Kind of experiment: PAL/TAL enzyme kinetics in cell-free extract, R. rubra ATCC 889. The conditions noted are these: Vmax/Km for phenylalanine relative to tyrosine.
Text: as §1, with “The cells were grown up at 30° C. on a shaker at ˜250 rpm to an OD between 1.0 and 2.0 at 600 nm. The cells were then pelleted by centrifugation and resuspended in 1.0 mL of 50 mM Tris-HCl buffer, pH 8.5.” left out
as §3
(§5) For PAL activity, cinnamate formation was monitored at 290 nm using a molar extinction coefficient of 9000 cm-1. […] For TAL activity, PHCA formation was monitored at 315 nm (extinction coefficient of 10,000 cm-1). […]

Experiment [9] has as its target T2, R. glutinis (Rhodosporidium toruloides, ATCC No. 10788) PAL/TAL enzyme (Rhodotorula toruloides, UniProt P11544).
T2 sequence (P11544 1-716): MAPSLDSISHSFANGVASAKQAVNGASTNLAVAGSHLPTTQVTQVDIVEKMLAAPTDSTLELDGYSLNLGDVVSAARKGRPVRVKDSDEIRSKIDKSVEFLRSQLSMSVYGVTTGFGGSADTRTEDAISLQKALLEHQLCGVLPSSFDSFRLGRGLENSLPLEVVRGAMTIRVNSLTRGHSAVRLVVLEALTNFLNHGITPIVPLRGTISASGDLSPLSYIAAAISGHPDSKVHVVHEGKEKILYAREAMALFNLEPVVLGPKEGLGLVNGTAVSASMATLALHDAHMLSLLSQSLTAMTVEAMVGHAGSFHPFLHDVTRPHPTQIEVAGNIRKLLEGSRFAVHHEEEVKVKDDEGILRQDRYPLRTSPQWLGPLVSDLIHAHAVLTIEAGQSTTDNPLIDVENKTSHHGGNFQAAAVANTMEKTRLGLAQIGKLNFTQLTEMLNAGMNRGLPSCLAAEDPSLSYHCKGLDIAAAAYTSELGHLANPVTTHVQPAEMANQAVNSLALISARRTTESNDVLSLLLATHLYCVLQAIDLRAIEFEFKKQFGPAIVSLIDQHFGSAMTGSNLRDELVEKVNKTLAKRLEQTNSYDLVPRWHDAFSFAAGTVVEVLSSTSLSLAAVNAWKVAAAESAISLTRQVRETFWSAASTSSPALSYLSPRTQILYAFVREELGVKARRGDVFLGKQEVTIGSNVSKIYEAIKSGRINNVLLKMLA
The experiment is described as follows: PAL/TAL enzyme kinetics in cell-free extract, R. glutinis (R. toruloides) ATCC 10788. The note with it: Vmax/Km for phenylalanine relative to tyrosine.
Text: as §1, with “The cells were grown up at 30° C. on a shaker at ˜250 rpm to an OD between 1.0 and 2.0 at 600 nm. The cells were then pelleted by centrifugation and resuspended in 1.0 mL of 50 mM Tris-HCl buffer, pH 8.5.” left out
as §3, §5

Where [10] appears, read: Vmax/Km for phenylalanine relative to tyrosine.
[11] abbreviates: apparent, phenylalanine as substrate, cell-free extract, pH 8.5.
Setting [12] is: apparent, phenylalanine as substrate, cell-free extract, pH 8.5, read-out: Km (PAL).
Where [13] appears, read: apparent, tyrosine as substrate, cell-free extract, pH 8.5.
Setting [14] is: apparent, tyrosine as substrate, cell-free extract, pH 8.5, read-out: Km (TAL).

The structures appear in SMILES notation. Where two headings read alike, the source gives them in different places.

Broadly, the Km is the concentration of substrate that gives half-maximal velocity. Consider `N[C@@H](Cc1ccccc1)C(=O)O` [L-phenylalanine], for which the “Ratio PAL/TAL” value in experiment [1] (setting [10]) turned out to be 3.55; in experiment [2] (setting [10]), 4.09; in [3] (setting [10]), 2.79; in experiment [4] (setting [10]), 1.74; in experiment [5] (setting [10]), 2.64; in [6] (setting [10]) it was 0.80. For the same compound, the “Ratio PAL/TAL” value in experiment [7] (setting [10]) was found to be 1.87; in experiment [8] it was 2.52; in experiment [9], 2.20. Also, the “Vmax (PAL)” value in experiment [1] (setting [11]) worked out at 0.179 U/mg; in experiment [2] (setting [11]) it was 0.024 U/mg; in [3] (setting [11]) it was 0.083 U/mg; in experiment [4] (setting [11]), 0.011 U/mg; in [5] (setting [11]), 0.128 U/mg; in experiment [6] (setting [11]), 0.777 U/mg. Besides, the “Vmax (PAL)” value in [7] (setting [11]) is reported as 0.239 U/mg. The Km turned out to be 507 µM in [1] (setting [12]); 389 µM in [2] (setting [12]); 584 µM in experiment [3] (setting [12]); 467 µM in experiment [4] (setting [12]); 49600 µM in experiment [5] (setting [12]); 2330 µM in experiment [6] (setting [12]). In experiment [7] (setting [12]), the Michaelis-Menten constant (Km) was found to be 448 µM.
Regarding `N[C@@H](Cc1ccc(O)cc1)C(=O)O` [L-tyrosine], the “Vmax (TAL)” value in [1] (setting [13]) was 0.033 U/mg; in experiment [2] (setting [13]), 0.004 U/mg; in experiment [3] (setting [13]), 0.011 U/mg; in experiment [4] (setting [13]) it was 0.002 U/mg; in experiment [5] (setting [13]) it was 0.013 U/mg; in [7] (setting [13]), 0.044 U/mg. The Km in experiment [1] (setting [14]) amounted to 327 µM; in experiment [2] (setting [14]), 264 µM; in [3] (setting [14]), 212 µM; in [4] (setting [14]), 156 µM; in experiment [5] (setting [14]), 13100 µM; in experiment [6] (setting [14]), 431 µM. Besides, the Km in experiment [7] (setting [14]) is 154 µM.
